Reference: patent US5942489A, “HGH-RH(1-29)NH2 analogues having antagonistic activity” (The Administrators of the Tulane Educational Fund, priority 1996, dated 1999)
Values belong to the molecule of their own block, whether it stands above or below them. Where a SMILES comes first, the peptide text is derived from it. Bridges are numbered along the chain shown (N, C = ends). Where no end group is shown, it is not given here. [ ]: non-standard residue; d: D form. The star is where a group is joined. Phe(4-Cl) = N[C@@H](Cc1ccc(Cl)cc1)C(=O)O; Nle = CCCC[C@H](N)C(=O)O; Abu = CC[C@H](N)C(=O)O; PhAc = O=C(Cc1ccccc1)*

Assays:
[1] = target: T1, rat pituitary GH-RH receptors (Rattus norvegicus, UniProt Q02644); experiment: GH-RH radioreceptor binding assay, competition with labelled [His1,Nle27]hGH-RH(1-32)NH2; conditions: for Ki: rat anterior pituitary membrane homogenates, read-out: Ki values, K
T1 construct: from tissue; host or cells: anterior pituitary of male Sprague-Dawley rats, crude membranes
T1 sequence (Q02644 23-464): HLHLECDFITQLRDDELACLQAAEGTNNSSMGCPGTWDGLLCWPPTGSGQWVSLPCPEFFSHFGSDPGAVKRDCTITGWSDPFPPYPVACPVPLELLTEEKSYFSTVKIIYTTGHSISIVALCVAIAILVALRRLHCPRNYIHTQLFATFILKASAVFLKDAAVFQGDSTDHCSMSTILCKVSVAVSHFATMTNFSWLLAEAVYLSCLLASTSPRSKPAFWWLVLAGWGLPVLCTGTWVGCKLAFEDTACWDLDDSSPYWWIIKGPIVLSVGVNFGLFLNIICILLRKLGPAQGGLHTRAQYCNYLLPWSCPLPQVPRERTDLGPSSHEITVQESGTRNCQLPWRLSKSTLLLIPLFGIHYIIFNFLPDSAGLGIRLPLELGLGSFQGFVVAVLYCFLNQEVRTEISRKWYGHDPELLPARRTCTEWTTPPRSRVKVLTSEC
Method: GH-RH Binding Assay. A sensitive radioreceptor binding assay was developed to determine the binding characteristics of the antagonists of GH-RH (G. Halmos, A. V. Schally et al., Receptor 3, 87-97, 1993), hereby incorporated by reference. The assay is based on binding of labelled [His^1, Nle^27 ]hGH-RH(1-32)NH2 to rat anterior pituitary membrane homogenates. Iodinated derivatives of [His^1, Nle^27 ]hGH-RH(1-32)NH2 are prepared by the chloramine-T method (F. C. Greenwood et al., Biochemistry 89:114-123, 1963), hereby incorporated by reference. Pituitaries from male Sprague-Dawley rats (250-300 g) are used to prepare crude membranes. For saturation binding analyses, membrane homogenates are incubated with at least 6 concentrations of [His^1,125I-Tyr^10,Nle^27 ]hGH-RH(1-32)NH2, ranging from 0.005 to 0.35 nM in the presence or absence of excess unlabelled peptide (1 μM).
The pellet is counted for radioactivity in a γ-counter. The affinities of the antagonist peptides tested to rat pituitary GH-RH receptors are determined in competitive binding experiments. The final binding affinities are estimated by Ki (dissociation constant of the inhibitor-receptor complex) and are determined by the Ligand PC computer program of Munson and Rodbard as modified by McPherson. Relative affinities compared to [Ac-Tyr^1, D-Arg^2 ]hGH-RH(1-29)NH2, the Standard antagonist, are calculated as the ratio of Ki of the tested GH-RH antagonist to the Ki of the Standard antagonist.

[2] = test system: GH release induced by 1 nM hGH-RH(1-29)NH2 in superfused rat pituitary cells; experiment: Inhibition of hGH-RH(1-29)NH2-induced GH release in superfused rat pituitary system; type: cell-based; conditions: 100 nM peptide
Method: Superfused Rat Pituitary System. The analogues were tested in vitro in a test described earlier (S. Vigh and A. V. Schally, Peptides 5:241-[…], 1984) with modification (Z. Rekasi and A. V. Schally, P. N. A. S. 90:2146-2149, 1993).
Briefly, the cells are preincubated with peptides for 9 minutes (3 mL) at various concentrations. Immediately after the incubation, 1 nM hGH-RH(1-29)NH2 is administered for 3 minutes (1 mL) [0 minute response]. To check the duration of the antagonistic effect of the analogue, 1 nM hGH-RH(1-29)NH2 is applied 30, 60, 90, and 120 minutes later for 3 minutes [30, 60, 90, 120 min responses]. Net integral values of the GH responses are evaluated. GH responses are compared to and expressed as percent of the original GH response induced by 1 nM GH-RH(1-29)NH2. The effect of the new antagonists are compared to that of [Ac-Tyr^1,D-Arg^2 ]hGH-RH(1-29)NH2, the "Standard antagonist".
Growth Hormone Radio-immunoassay. Rat GH levels in aliquots of undiluted and diluted superfusion samples were measured by double-antibody radioimmunoassay using materials supplied by the National Hormone and Pituitary Program, Baltimore, Md. The results of RIA were analyzed with a computer program developed in our institute (V. Csernus and A. V. Schally, Harwood Academic (Greenstein, B. C. ed., London, pp. 71-109, 1991), hereby incorporated by reference. Inter-assay variation was less than 15% and intra-assay variation was less than 10%.

[3] = test system: GH releasing activity; conditions: cited from earlier work; for bioactivity of shorter analogues: compared with hGH-RH(1-29)NH2; for GH releasing activity relative to GH-RH: percent of that of GH-RH
[4] = test system: SW-1990 human pancreatic cancers; experiment: SW 1990 human pancreatic cancers in nude mice; type: in vivo; conditions: dose 10, 44 days treatment
Method: Small piees of an SW-1990 rumor growing in a nude mouse were transplated s.c. into the right flanks of 60 nu/nu male nude mice. Ten days after transplantation, 40 mice with well growing tumors were groupled into 4 groups with equal average tumor volume (16 mm^3) in each group. Treatment started 13 days after transplantation and was continuted for 44 days. The tumors were measured and volume was calculated weekly. Tumor volume changes are shown in Table V. On day 45 of treatment the mice were sacraficed under Metofane anesthesia by exsanguination from abdominal aorta. Blood was collected, tumor and organ weights were determined.

- Ki [1]: 0.059 ± 0.001 nM
Molecule: CCCC[C@H](NC(=O)[C@@H](NC(=O)[C@H](CC(=O)O)NC(=O)[C@H](CCC(N)=O)NC(=O)[C@H](CC(C)C)NC(=O)[C@H](CC(C)C)NC(=O)[C@H](CCCCN)NC(=O)[C@H](CCCNC(=N)N)NC(=O)[C@H](C)NC(=O)[C@H](CO)NC(=O)[C@H](CC(C)C)NC(=O)[C@H](CCC(N)=O)NC(=O)[C@H](C)NC(=O)[C@H](CC(C)C)NC(=O)[C@@H](NC(=O)[C@H](CCCCN)NC(=O)[C@H](CCCNC(=N)N)NC(=O)[C@H](Cc1ccc(O)cc1)NC(=O)[C@H](CO)NC(=O)[C@H](CC)NC(=O)[C@@H](NC(=O)[C@H](Cc1ccc(Cl)cc1)NC(=O)[C@@H](NC(=O)[C@H](C)NC(=O)[C@H](CC(=O)O)NC(=O)[C@@H](CCCNC(=N)N)NC(=O)[C@H](Cc1ccc(O)cc1)NC(=O)Cc1ccccc1)[C@@H](C)CC)[C@@H](C)O)C(C)C)[C@@H](C)CC)C(=O)N[C@@H](CO)C(=O)N[C@@H](CCCNC(=N)N)C(N)=O [Peptide 11, [PhAc^0,D-Arg^2,Phe(pCl)^6,Abu^8,Ala^15,Nle^27],hGH-RH(1-29)NH2] (PhAc-Y[dR]DAI[Phe(4-Cl)]T[Abu]SYRKVLAQLSARKLLQDI[Nle]SR-NH2)

- Ki [1]: 0.159 ± 0.04 nM
Molecule: CCCC[C@H](NC(=O)[C@@H](NC(=O)[C@H](CC(=O)O)NC(=O)[C@H](CCC(N)=O)NC(=O)[C@H](CC(C)C)NC(=O)[C@H](CC(C)C)NC(=O)[C@@H]1CCCCNC(=O)CC[C@H](NC(=O)[C@H](CCC(N)=O)NC(=O)[C@H](C)NC(=O)[C@H](CC(C)C)NC(=O)[C@@H](NC(=O)[C@H](CCCCN)NC(=O)[C@H](CCCNC(=N)N)NC(=O)[C@H](Cc2ccc(O)cc2)NC(=O)[C@H](CO)NC(=O)[C@H](CO)NC(=O)[C@@H](NC(=O)[C@H](Cc2ccc(Cl)cc2)NC(=O)[C@@H](NC(=O)[C@H](C)NC(=O)[C@H](CC(=O)O)NC(=O)[C@@H](CCCNC(=N)N)NC(=O)[C@H](Cc2ccc(O)cc2)NC(=O)Cc2ccccc2)[C@@H](C)CC)[C@@H](C)O)C(C)C)C(=O)N[C@@H](CO)C(=O)N[C@@H](C)C(=O)N[C@@H](CCCNC(=N)N)C(=O)N1)[C@@H](C)CC)C(=O)N[C@@H](CO)C(=O)N[C@@H](CCCNC(=N)N)C(N)=O [Peptide 18, cyclo^17,21 [PhAc^0,D-Arg^2,Phe(pCl)^6,Ser^8,Ala^15,Glu^17,Nle^27]hGH-RH(1-29)NH2] (PhAc-Y[dR]DAI[Phe(4-Cl)]TSSYRKVLAQESARKLLQDI[Nle]SR-NH2; lactam 17-21)

- Ki [1]: 0.456 nM
Molecule: CCCC[C@H](NC(=O)[C@@H](NC(=O)[C@@H]1CCC(=O)NCCCC[C@H](NC(=O)[C@H](CCCNC(=N)N)NC(=O)[C@H](C)NC(=O)[C@H](CO)NC(=O)[C@H](CC(C)C)NC(=O)[C@H](CCC(N)=O)NC(=O)[C@H](C)NC(=O)[C@H](CC(C)C)NC(=O)[C@@H](NC(=O)[C@H]2CCCCNC(=O)CC[C@H](NC(=O)[C@@H](NC(=O)[C@H](Cc3ccc(Cl)cc3)NC(=O)[C@@H](NC(=O)[C@H](C)NC(=O)[C@H](CC(=O)O)NC(=O)[C@@H](CCCNC(=N)N)NC(=O)[C@H](Cc3ccc(O)cc3)NC(=O)Cc3ccccc3)[C@@H](C)CC)[C@@H](C)O)C(=O)N[C@@H](CO)C(=O)N[C@@H](Cc3ccc(O)cc3)C(=O)N[C@@H](CCCNC(=N)N)C(=O)N2)C(C)C)C(=O)N[C@@H](CC(C)C)C(=O)N[C@@H](CC(C)C)C(=O)N[C@@H](CCC(N)=O)C(=O)N1)[C@@H](C)CC)C(=O)N[C@@H](CO)C(=O)N[C@@H](CCCNC(=N)N)C(N)=O [Peptide 23, cyclo^8,12; 21,25 [[PhAc^0,D-Arg^2,Phe(pCl)^6,Glu^8,25,D-Lys^12,Ala^15,Nle^27]hGH-RH(1-29)-NH2] (PhAc-Y[dR]DAI[Phe(4-Cl)]TESYR[dK]VLAQLSARKLLQEI[Nle]SR-NH2; lactam 8-12, 21-25)

- Ki [1]: 3.37 ± 0.14 nM
- relative affinities (R.A.) ([1]; relative to Standard antagonist (=1)): 1
Molecule: CC[C@H](C)[C@H](NC(=O)[C@H](C)NC(=O)[C@H](CC(=O)O)NC(=O)[C@@H](CCCNC(=N)N)NC(=O)[C@H](Cc1ccc(O)cc1)NC(C)=O)C(=O)N[C@@H](Cc1ccccc1)C(=O)N[C@H](C(=O)N[C@@H](CC(N)=O)C(=O)N[C@@H](CO)C(=O)N[C@@H](Cc1ccc(O)cc1)C(=O)N[C@@H](CCCNC(=N)N)C(=O)N[C@@H](CCCCN)C(=O)N[C@H](C(=O)N[C@@H](CC(C)C)C(=O)NCC(=O)N[C@@H](CCC(N)=O)C(=O)N[C@@H](CC(C)C)C(=O)N[C@@H](CO)C(=O)N[C@@H](C)C(=O)N[C@@H](CCCNC(=N)N)C(=O)N[C@@H](CCCCN)C(=O)N[C@@H](CC(C)C)C(=O)N[C@@H](CC(C)C)C(=O)N[C@@H](CCC(N)=O)C(=O)N[C@@H](CC(=O)O)C(=O)N[C@H](C(=O)N[C@@H](CCSC)C(=O)N[C@@H](CO)C(=O)N[C@@H](CCCNC(=N)N)C(N)=O)[C@@H](C)CC)C(C)C)[C@@H](C)O [Standard antagonist, [Ac-Tyr^1,D-Arg^2]hGH-RH(1-29)NH2] (Ac-Y[dR]DAIFTNSYRKVLGQLSARKLLQDIMSR-NH2)
- Inhibition of GH release (%) 0 min ([2]; 0 min response): 62.1%
- Inhibition of GH release (%) 30 min ([2]; 30 min response): 2.5%
- Inhibition of GH release (%) 60 min ([2]; 60 min response): 19%

Molecule: GH-RH(1-27)NH2 (YADAIFTNSYRKVLGQLSARKLLQDIM-NH2; UniProt P01286 32-58, looked up, fragment)
- bioactivity of shorter analogues [3]: substantially lower bioactivity

Molecule: GH-RH(1-28)NH2 (YADAIFTNSYRKVLGQLSARKLLQDIMS-NH2; UniProt P01286 32-59, looked up, fragment)
- bioactivity of shorter analogues [3]: substantially lower bioactivity

Molecule: [Ac-Tyr^1 ]GH-RH (Ac-YADAIFTNSYRKVLGQLSARKLLQDIMSRQQGESNQERGARARL; ends and bridges not checked; UniProt P01286 32-75, looked up)
- GH releasing activity relative to GH-RH [3]: 2-3%

Molecule: [D-Tyr^1 ]GH-RH
- GH releasing activity relative to GH-RH [3]: 2-3%

Molecule: [PhAc^0,D-Arg^2,Phe(pCl)^6,Abu^15,Nle^27 ]hGH-RH(1-28)Agm [Peptide B]
- Final Tumor Volume mm^3 [4]: 612 ± 220 mm^3
- Tumor weights [4]: 931 ± 330 mg

Molecule: hGH-RH(2-44) (ADAIFTNSYRKVLGQLSARKLLQDIMSRQQGESNQERGARARL; ends and bridges not checked; UniProt P01286 33-75, looked up, fragment) [GH-RH without its N-terminus residue]
- GH releasing activity relative to GH-RH [3]: 0.1%
